Patent US20160002294A1, “NOVEL POLYPEPTIDES HAVING SATIETY HORMONE RELEASING ACTIVITY” (SOLAE LLC, priority 2013, published 2016)
Like-named read-outs stand apart in the source and are kept apart here.

What was measured:
STC-1 cells [1] = details: 4 h
Procedure: To assay for CCK release activity, SEQ ID NO: 1 was dissolved in Dulbecco's phosphate buffered saline (D-PBS) at 10 mg/ml. This solution was then diluted to between 0.002 and 4 mg/ml with d-PBS, then added to media of STC-1 cells (passage 25 to 28) in 1:1 ratio of D-PBS and Dulbecco's Modified Eagle's Medium (DMEM-high glucose) and incubated with the cells at 37° C. (99° F.) and a CO2 level of 5% for 4 hours. The solution containing SEQ ID NO: 1 was added to cells at a variety of concentrations ranging from 0.001 to 2 mg/ml to generate a dose-response curve.
Following the incubation period, concentrations of CCK released by STC-1 cells into the media were assayed using a commercially available immunoassay kit for CCK detection from Phoenix Pharmaceuticals, Burlingame, Calif. (catalogue number EK-069-04). Assays were performed according to the manufacturer's instructions using a standard curve covering a range of concentrations from 0.4 to 1000 pg/well. Absorbance was measured at a wavelength of 450 nm.
CCK quantities obtained from each tested concentration of SEQ ID NO: 1 were plotted vs. log concentration of peptide. A dose-response curve was then generated by fitting the data with a logistic function using OriginLab graphing software.
Each variant was assayed for CCK activity at 2 mg/ml using the method described in Example 1.

STC-1 cells [2] = details: 2 h
Procedure: To assay for GLP-1 release activity, SEQ ID NO: 1 was dissolved in Dulbecco's phosphate buffered saline (D-PBS) at 10 mg/ml. This solution was diluted to between 0.002 and 4 mg/ml with D-PBS, then added to media of STC-1 cells (passage 25 to 28) in 1:1 ratio of D-PBS and Dulbecco's Modified Eagle's Medium (DMEM-high glucose) and incubated with the cells at 37° C. (99° F.) and a CO2 level of 5% for 2 hours. The solution containing SEQ ID NO: 1 was added to cells at a variety of concentrations ranging from 0.001 to 2 mg/ml to generate a dose-response curve.
Following the incubation period, concentrations of GLP-1 released by the STC-1 cells into the media were assayed using a commercially available immunoassay kit for GLP-1 detection from Phoenix Pharmaceuticals, Burlingame, CA (catalogue number EK-028-11). Assays were performed according to the manufacturer's instructions using a standard curve covering a range of concentrations from 0.4 to 1000 pg/well. Absorbance was measured at a wavelength of 450 nm.
GLP-1 quantities obtained from each tested concentration of SEQ ID NO: 1 were plotted vs. log concentration of peptide. A dose-response curve was then generated by fitting the data with a logistic function using OriginLab graphing software.
Each variant was assayed for GLP-1 activity at 2 mg/ml using the method described in Example 2.

- EC50 (STC-1 cells [1]): 43 µM
- EC50 (STC-1 cells [2]): 186 µM
Substance: H-TSLDFPALSWLRL-OH [SEQ ID NO: 1, NH2-TSLDFPALSWLRL-COOH]
